Data on five compounds can be found in patent US9499504B2, “Crystalline form of vortioxetine hydrobromide” (Sandoz AG, priority 2012, dated 2016).

The structures appear in SMILES notation. Bounds are passed on as bounds.

For data set [1] the following is noted: exposed to high relative humidity; example 4f of WO 2007/144005 A1; cited from earlier work.
Data set [2] can be described thus: Solubility as a function of time in hexanol/n-heptane (1:39 v:v), UV-spectrophotometry. Particulars: 25±1° C., UV at 227 nm, hydrobromide. The data set is classed as physicochemical. The source says:
It is known to a person skilled in the art that the difference in the relative solubility of two polymorphs is independent from the solvent system, if an “ideal solution”, meaning a solution which is not too concentrated, is present. (see e.g. Kuhnert-Brandstätter M., Burger A., Pharmazeutische Industrie, 1972, 34, Nr. 3, 187-190; Samuel H. Yalowsky, Solubility and Solubilization in Aqueous Media, ACS, Oxford University Press 1999, ISBN: 0-8412-3576-7, p. 98). Therefore the solubilities of vortioxetine hydrobromide forms alpha and beta of WO 2007/144005 A1 and the compound of the present invention were determined in a mixture of hexanol and n-heptane. […] (see example 4 of the present invention).
The solubilities as a function of time were determined for vortioxetine hydrobromide polymorphs alpha, beta and the crystalline compound of the present invention, respectively. Therefore approximately 100 mg of each polymorph (polymorph alpha and beta were obtained according to the procedures disclosed in WO 2007/144005 A1, the crystalline compound of the present invention was obtained according to the procedure disclosed in example 1 herein) were stirred in 50 mL of a mixture of hexanol/n-heptane (1:39=v:v) at 25±1° C. Subsequently 5 mL were taken from each suspension after 1, 5, 10, 15, 30 and 60 minutes with the aid of a volumetric pipette and filtered. The concentrations of the obtained solutions were determined directly by UV-spectrophotometry (apparatus: Shimadzu UV1800) at 227 nm.
The determination of the extinction coefficient was performed with polymorph delta as a calibration substance.

Data set [3] is described as follows: Solid-state stability of the hydrate at room temperature. The data set is classed as physicochemical. Particulars: not stable. From the text: The novel hydrate of vortioxetine hydrobromide is not stable at room temperature and converts to form alpha of WO 2007/144005 A1 within about 4 weeks.
The nature of data set [4]: Water solubility calculated from relative solubilities and WO 2007/144005 A1 water solubility data. Particulars: calculation with water solubility value of polymorph alpha (2.0 mg/mL) from WO 2007/144005 A1, hydrobromide.
Source text: (§1) Using the water solubility values of polymorphs alpha and beta provided in WO 2007/144005 A1 and the herein determined relative solubilities of polymorphs alpha, beta and delta the water solubility of the crystalline compound of the present invention can be calculated.
A short description of another data set: physchem. Particulars: water.
The nature of data set [5]: Gravimetric moisture sorption/desorption cycle. The data set is classed as physicochemical. From the text: In addition, an active pharmaceutical ingredient is preferably non-hygroscopic in order to ensure the chemical and physical quality during the storage of the active substance itself. Furthermore, an active pharmaceutical ingredient is preferably non-hygroscopic in order to ensure the chemical and physical quality also during the shelf-life of a solid finished dosage form containing the active substance. Special and expensive packaging can then be avoided. […] For instance, in example 4f of WO 2007/144005 A1, it is mentioned that form gamma absorbs about 4.5% water when exposed to high relative humidity and in example 4h of the same application it is stated that the water content of the hemihydrate strongly depends on the relative humidity. For instance, the water content of the hemihydrate at 95% relative humidity is about 3.7% according to example 4h of WO 2007/144005.
Gravimetric moisture sorption/desorption curves were acquired using a SPS-11 moisture sorption analyzer (MD Messtechnik, Ulm, D). The measurement cycle was started at 43% relative humidity (RH) and decreased in 10% steps down to 0% RH; up to 95% RH, down to 0% RH and up to 43% RH. The equilibrium condition for each step was set to a mass constancy of ±0.01% over 30 min. The temperature was 25±0.1° C.

Source text for physchem: as §1

Turning to `Br.Cc1ccc(Sc2ccccc2N2CCNCC2)c(C)c1` [form gamma, 1-{2-[(2,4-dimethylphenyl)sulfanyl]phenyl}piperazine hydrobromide], the water absorbed entry in data set [1] is reported as “about 4.5%”.
As for `Br.Cc1ccc(Sc2ccccc2N2CCNCC2)c(C)c1` [polymorph alpha, 1-{2-[(2,4-dimethylphenyl)sulfanyl]phenyl}piperazine hydrobromide], in data set [2] (listed as alpha), the “absolute solubility in hexanol/n-heptan (1:39 = v:v)” value (“absolute solubility” below) was determined as 31 µg/mL.
In the case of `Cc1ccc(Sc2ccccc2N2CCNCC2)c(C)c1`, in data set [3], the “time to conversion to form alpha” value is at most 4 weeks.
In the case of `Br.Cc1ccc(Sc2ccccc2N2CCNCC2)c(C)c1` [polymorph beta, 1-{2-[(2,4-dimethylphenyl)sulfanyl]phenyl}piperazine hydrobromide, reference compound], the “calculated water solubility 1)” value in data set [4] is 1000 µg/mL. In addition, in data set [2] (listed as beta), the “absolute solubility” value was 15 µg/mL.
One may read the solubility as the dissolved amount per volume that the medium holds. Turning to `Br.Cc1ccc(Sc2ccccc2N2CCNCC2)c(C)c1` [polymorph delta, 1-{2-[(2,4-dimethylphenyl)sulfanyl]phenyl}piperazine hydrobromide], the solubility in “physchem” was 3800 µg/mL. Also, in data set [4] (listed as compound of the present invention), the “calculated water solubility 1)” value is 3000 µg/mL. The hygroscopicity result in data set [5] (according to the specifications of the European Pharmacopoeia) is “non-hygroscopic”. The water content result in data set [5] (relative humidity of about 0%, 25° C.) is “about 0.3%”; in data set [5] (relative humidity of about 80%, 25° C.) it was “about 0.5%”; in data set [5] (up to a relative humidity of about 95%), “less than 0.7%”. Also, in data set [2] (listed as present invention), the “absolute solubility” value was 48 µg/mL.
